Reference: publication PMC10762068, “Selective blockade of Cav1.2 (α1C) versus Cav1.3 (α1D) L-type calcium channels by the black mamba toxin calciseptine” (Nature Communications, 2024)
“Also recorded” adds a separate entry of the source. Positions of bridges follow the written chain, without caps; N, C: chain ends. No end group written: not given here.

How the values were obtained:
[1] = tested on: Cav2.1 P/Q type; test: Ca2+ current in HEK-293T cells expressing Cav2.1; assay type: cell-based; conditions: Cas 300 nM (n=10/N=3) and 1 µM (n=10/N=3); holding -80 mV, step 0 mV
Procedure: (§1) HEK-293T (RRID:CVCL_2737) were obtained from the European Collection of Authenticated Cell Cultures (ECACC 96121229). The identity of HEK-293T has been confirmed by STR profiling and the cells have been eradicated from mycoplasma at ECACC. We routinely tested the cells for the absence of the mycoplasma contamination. Cells were cultivated at 37 °C in DMEM supplemented with GlutaMax, 10% fetal bovine serum and 1% penicillin/streptomycin (Invitrogen, Fisher Scientific, France). […]
(§2) Macroscopic currents in HEK-293T cells were recorded at room temperature using an Axopatch 200B or Multiclamp 700B patchclamp amplifier (Molecular Devices, Sunnyvale CA). […]
(§3) In all experiments of cellular electrophysiology, we employed synthetized analog of Cas, commercially available at Latoxan (ID: L8109). […] Its measured molecular mass (7036.26 Da average) was in accordance with the mass calculated from sequence data (7036.22 Da). […]
(§4) n=10/N=3) channels. Peak current density wa s recorded starting f rom a holding potential of -80mV using an activating voltage step at -30mV for Cav3.1, f ro m a holding potential of -90mV using an activating voltage step at +20mV for Cav2.2 and f rom a holding potential of -80mV using an activating voltage step at 0mV for Cav2.1. Exam ples of recorded traces are reported. […]

[2] = tested on: Cav3.1 T-type; test: Ca2+ current in HEK-293T cells expressing Cav3.1; assay type: cell-based; conditions: Cas 300 nM (n=13/N=3) and 1 µM (n=10/N=3); holding -80 mV, step -30 mV
Procedure: as §1, §2, §3, §4

[3] = tested on: total ICaL (ICav1.2+ICav1.3) in SAN myocytes from wild-type mice; test: ICaL, patch clamp, SAN myocytes from wild-type mice; assay type: cell-based, mouse; conditions: for L-type Ca2+ current density: Cas 1 µM alone or + Nife 3 µM, n=8
Procedure: Hearts from Wild-Type and Cav1.3^−/− mice were removed under general anesthesia consisting of 0.01 mg/g xylazine (2% Rompun; Bayer AG) and 0.1 mg/g ketamine (Imalgène;Merial) and immersed in a pre-warmed (36 °C) Tyrode solution containing (mM): 140 NaCl, 5.4 KCl, 1 MgCl2, 1.8 CaCl2, 5.5 D-glucose, and 5 Hepes (adjusted to pH 7.4 with NaOH). […] SAN tissue was excised and transferred into a low-Ca^2+ solution containing (mM): 140 NaCl, 5.4 KCl, 0.5 MgCl2, 0.2 CaCl2, 1.2 KH2PO4, 50 taurine, 5.5 D-glucose, 1 mg/mL BSA, and 5 Hepes–NaOH (adjusted to pH 6.9 with NaOH) for 5 min. Then, enzymatic digestion was carried out for 20-25 min at 36 °C in the low-Ca^2+ solution containing LiberaseTH Research Grade (0.15 mg/mL; Roche, Mannheim, Germany) and elastase (0.5 mg/mL; Worthington, Lakewood, NJ, USA). Digestion was stopped by washing the SAN in a “Kraftbrühe” (KB) medium containing (mM) 100 K-glutamate, 10 K-aspartate, 25 KCl, 10 KH2PO4, 2 MgSO4, 20 taurine, 5 creatine, 0.5 EGTA, 20 D-glucose, 5 Hepes, and 1 mg/mL BSA (adjusted to pH 7.2 with KOH). Single SAN cells were then dissociated from the SAN tissue by manual agitation using a flame-forged Pasteur’s pipette. To recover the automaticity of the SAN cells, Ca^2+ was gradually reintroduced in the cell’s storage solution to a final concentration of 1.8 mM. SAN cells were then left to rest for 1 h before recordings.
For patch-clamp recordings of SAN myocytes, cells were harvested in custom-made chambers with glass bottoms for cell attachment. Cells were then super-fused with Tyrode’s solution warmed at 36 °C before recording. Action potentials and ionic currents were recorded using an Axon multi-clamp patch-clamp 700B amplifier. Voltage-gated L-type Ca^2+ currents (ICaL) were recorded using standard whole cell patch-clamp configuration. For recording ICaL, we used an extracellular recording solution contained (mM): 135 tetraethylammonium chloride (TEA-Cl), 10 4-aminopyridine (4-AP), 1 MgCl2, 0.03 tetrodotoxin (TTX), 1 g/L Glucose, 2 CaCl2, 10 Hepes, (adjusted to pH = 7.2 with TEAOH). […] Pacemaker activity was recorded by the perforated patch-clamp technique using escin (40 µg/ml). For recording cell automaticity glass pipettes were filled with the intracellular solution contained (mM): 80 K-Aspartate, 50 KCl, 1 MgCl2, 5 HEPES, 2 CaCl2, 5 EGTA, 3 ATP-Na+ salt; pH was adjusted to 7.2 with KOH. Escin was dissolved in sterile H2O and added to the intracellular solution right before each experiment.
In all experiments of cellular electrophysiology, we employed synthetized analog of Cas, commercially available at Latoxan (ID: L8109). The native peptide was purified from the venom of Dendroaspis polylepis purchased from Latoxan, as previoulsly described. The pure peptide was obtained after gel filtration, cation exchange and C18 reversed phase chromatography. Its measured molecular mass (7036.26 Da average) was in accordance with the mass calculated from sequence data (7036.22 Da).

Sequence: RICYIHKASLPRATKTCVENTCYKMFIRTQREYISERGCGCPTAMWPYQTECCKGDRCNK (disulfide 3-22, 17-39, 41-52, 53-58 (inferred)) [Cas, calciseptine]
- effect on Cav2.1 current [1]: failed to detect inhibitory effect; also recorded: had no effect
- effect on Cav3.1 current [2]: failed to detect inhibitory effect; also recorded: had no effect
- L-type Ca2+ current density ([3]; 0 mV, Ctrl -8.45± 1.02): -3.87± 0.71 pA/pF
- L-type Ca2+ current density ([3]; +20 mV, Ctrl -5.09± 0.81): -1.53± 0.56 pA/pF
- L-type Ca2+ current density ([3]; -10 mV, Ctrl -8.20± 1.10): -4.24± 0.77 pA/pF
- L-type Ca2+ current density ([3]; -20 mV, Ctrl -5.61± 0.91): -3.37± 0.54 pA/pF
- L-type Ca2+ current density ([3]; -25 mV, Ctrl -3.96± 0.71): -2.46± 0.48 pA/pF
- L-type Ca2+ current density ([3]; -30 mV, Ctrl -2.44± 0.47): -1.49± 0.38 pA/pF
- L-type Ca2+ current density ([3]; -35 mV, Ctrl -1.18± 0.29): -0.90± 0.24 pA/pF
- reduction of total ICaL ([3]; Wild-Type SAN myocytes, voltage clamp): around 45%
